Experimental data published in ChEMBL document CHEMBL4725294, “Centrally Active Multitarget Anti-Alzheimer Agents Derived from the Antioxidant Lead CR-6” (J Med Chem, 2020).
Activity calls are given as the source filed them. No cut-off for these calls is given here.

Legend:
[1] = Drug level in rat liver microsomes treated with N-{8-[(6-Chloro-1,2,3,4-tetrahydroacridin-9-yl)amino]octyl}-2-(6-hydroxy-7-methoxy-2-methylchroman-2-yl)acetamide at 5 uM measured up to 60 mins by UPLC-MS/MS analysis; assay type: ADME, Microsome; conditions: 1 h
[2] = Drug level in human liver microsomes treated with N-{8-[(6-Chloro-1,2,3,4-tetrahydroacridin-9-yl)amino]octyl}-2-(6-hydroxy-7-methoxy-2-methylchroman-2-yl)acetamide at 5 uM measured up to 60 mins by UPLC-MS/MS analysis; assay type: ADME, Microsome; conditions: 1 h
[3] = Drug level in mouse liver microsomes treated with N-{8-[(6-Chloro-1,2,3,4-tetrahydroacridin-9-yl)amino]octyl}-2-(6-hydroxy-7-methoxy-2-methylchroman-2-yl)acetamide at 5 uM measured up to 60 mins by UPLC-MS/MS analysis; assay type: ADME, Microsome; conditions: 1 h
Cholinesterase [4] = biological target: T1, Cholinesterase (Homo sapiens, UniProt P06276)
Description: (§1) Inhibition of recombinant human BChE using butyrylthiocholine iodide as substrate preincubated for 15 mins followed by substrate addition by Ellman's method

in vitro = conditions: PAMPA
Description: Permeability of compound in PBS/EtOH buffer (7:3) PAMPA-BBB assay

Beta-secretase 1 [5] = biological target: T2, Beta-secretase 1 (Homo sapiens, UniProt P56817); experiment: Inhibition human BACE1 expressed in baculovirus expression system using Panvera peptide as substrate measured after 60 mins by fluorescence assay
Acetylcholinesterase [6] = biological target: T3, Acetylcholinesterase (Homo sapiens, UniProt P22303)
Description: (§2) Inhibition of recombinant human AChE expressed in HEK293 cells using acetylthiocholine iodide as substrate preincubated for 15 mins followed by substrate addition by Ellman's method

Acetylcholinesterase [7] = biological target: T3, Acetylcholinesterase; experiment: Potency index, ratio of tacrine IC50 to test compound IC50 for recombinant human AChE expressed in HEK293 cells; assay type: cell-based
Beta-secretase 1 [8] = biological target: T2, Beta-secretase 1; experiment: Inhibition human BACE1 expressed in baculovirus expression system at 5 uM using Panvera peptide as substrate measured after 60 mins by fluorescence assay relative to control; conditions: 1 h; for inhibition (INH): 5 µM
Cholinesterase [9] = biological target: T1, Cholinesterase; experiment: Potency index, ratio of tacrine IC50 to test compound IC50 for recombinant human BChE
Cholinesterase [10] = biological target: T1, Cholinesterase; remark: listed apart in the source
Description: as §1

Acetylcholinesterase [11] = biological target: T3, Acetylcholinesterase; conditions: hek293
Description: as §2

Acetylcholinesterase [12] = biological target: T3, Acetylcholinesterase; experiment: Mixed inhibition of recombinant human AChE expressed in HEK293 cells assessed as dissociation constant for enzyme-inhibitor complex using varying levels of acetylthiocholine iodide as substrate preincubated for 15 mins followed by substrate addition by Line-weaver Burk plot analysis
Acetylcholinesterase [13] = biological target: Acetylcholinesterase (Electrophorus electricus, UniProt O42275); experiment: Displacement of propidium iodide from PAS region of electric eel AChE by fluorescence assay
Acetylcholinesterase [14] = biological target: T3, Acetylcholinesterase; experiment: Mixed inhibition of recombinant human AChE expressed in HEK293 cells assessed as dissociation constant for enzyme-substrate-inhibitor complex using varying levels of acetylthiocholine iodide as substrate preincubated for 15 mins followed by substrate addition by Line-weaver Burk plot analysis
Cholinesterase [15] = biological target: T1, Cholinesterase; experiment: Inhibition of recombinant human BChE at 100 uM using butyrylthiocholine iodide as substrate preincubated for 15 mins followed by substrate addition by Ellman's method
Acetylcholinesterase [16] = biological target: T3, Acetylcholinesterase; experiment: Inhibition of recombinant human AChE expressed in HEK293 cells at 100 uM using acetylthiocholine iodide as substrate preincubated for 15 mins followed by substrate addition by Ellman's method

T2 sequence (P56817 whole entry): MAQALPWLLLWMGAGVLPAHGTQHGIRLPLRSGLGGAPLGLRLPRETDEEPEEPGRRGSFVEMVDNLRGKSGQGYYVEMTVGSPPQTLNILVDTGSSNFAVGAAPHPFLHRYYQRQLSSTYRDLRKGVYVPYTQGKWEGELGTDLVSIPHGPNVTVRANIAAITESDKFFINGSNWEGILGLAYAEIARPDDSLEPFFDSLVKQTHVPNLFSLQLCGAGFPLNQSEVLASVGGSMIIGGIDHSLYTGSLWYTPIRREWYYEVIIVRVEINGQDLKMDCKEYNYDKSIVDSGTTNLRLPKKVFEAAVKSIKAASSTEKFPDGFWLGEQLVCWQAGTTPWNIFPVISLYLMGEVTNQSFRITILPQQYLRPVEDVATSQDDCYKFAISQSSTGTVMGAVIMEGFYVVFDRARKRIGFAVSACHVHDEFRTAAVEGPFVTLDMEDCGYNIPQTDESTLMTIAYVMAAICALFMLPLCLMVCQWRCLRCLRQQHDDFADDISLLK
T3 sequence (P22303 whole entry): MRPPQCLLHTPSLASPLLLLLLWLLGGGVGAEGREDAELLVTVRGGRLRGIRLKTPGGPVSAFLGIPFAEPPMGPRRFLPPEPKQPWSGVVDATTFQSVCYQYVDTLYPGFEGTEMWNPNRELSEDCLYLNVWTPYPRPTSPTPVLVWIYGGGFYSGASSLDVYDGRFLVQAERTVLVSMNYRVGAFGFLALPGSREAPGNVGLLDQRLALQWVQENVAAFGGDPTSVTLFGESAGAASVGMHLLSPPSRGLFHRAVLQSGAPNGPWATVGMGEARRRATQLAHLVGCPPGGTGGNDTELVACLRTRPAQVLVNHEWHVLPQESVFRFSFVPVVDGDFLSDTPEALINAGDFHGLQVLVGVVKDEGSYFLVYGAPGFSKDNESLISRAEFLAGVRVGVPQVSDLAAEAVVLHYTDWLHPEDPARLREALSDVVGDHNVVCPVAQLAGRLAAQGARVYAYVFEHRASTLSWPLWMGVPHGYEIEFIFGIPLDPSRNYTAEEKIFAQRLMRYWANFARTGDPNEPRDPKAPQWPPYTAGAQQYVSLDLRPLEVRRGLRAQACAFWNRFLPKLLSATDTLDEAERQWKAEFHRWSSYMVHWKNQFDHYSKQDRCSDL
T1 sequence (P06276 whole entry): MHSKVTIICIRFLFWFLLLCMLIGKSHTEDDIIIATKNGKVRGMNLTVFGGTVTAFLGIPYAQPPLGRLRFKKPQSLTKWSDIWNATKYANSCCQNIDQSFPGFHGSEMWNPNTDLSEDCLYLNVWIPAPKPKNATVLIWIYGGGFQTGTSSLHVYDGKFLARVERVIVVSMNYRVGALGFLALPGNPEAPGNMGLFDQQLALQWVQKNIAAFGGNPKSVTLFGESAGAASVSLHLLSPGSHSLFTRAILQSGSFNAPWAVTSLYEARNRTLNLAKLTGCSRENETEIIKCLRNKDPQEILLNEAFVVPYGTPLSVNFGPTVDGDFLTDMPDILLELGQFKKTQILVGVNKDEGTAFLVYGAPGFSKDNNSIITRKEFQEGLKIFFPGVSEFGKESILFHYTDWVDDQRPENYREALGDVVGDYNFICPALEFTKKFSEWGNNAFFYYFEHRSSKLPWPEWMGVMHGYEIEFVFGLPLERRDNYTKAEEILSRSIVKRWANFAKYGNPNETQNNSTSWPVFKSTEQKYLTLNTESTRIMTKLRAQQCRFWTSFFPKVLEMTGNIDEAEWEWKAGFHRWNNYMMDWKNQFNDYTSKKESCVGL
Acetylcholinesterase (Electrophorus electricus, UniProt O42275), sequence (O42275 whole entry): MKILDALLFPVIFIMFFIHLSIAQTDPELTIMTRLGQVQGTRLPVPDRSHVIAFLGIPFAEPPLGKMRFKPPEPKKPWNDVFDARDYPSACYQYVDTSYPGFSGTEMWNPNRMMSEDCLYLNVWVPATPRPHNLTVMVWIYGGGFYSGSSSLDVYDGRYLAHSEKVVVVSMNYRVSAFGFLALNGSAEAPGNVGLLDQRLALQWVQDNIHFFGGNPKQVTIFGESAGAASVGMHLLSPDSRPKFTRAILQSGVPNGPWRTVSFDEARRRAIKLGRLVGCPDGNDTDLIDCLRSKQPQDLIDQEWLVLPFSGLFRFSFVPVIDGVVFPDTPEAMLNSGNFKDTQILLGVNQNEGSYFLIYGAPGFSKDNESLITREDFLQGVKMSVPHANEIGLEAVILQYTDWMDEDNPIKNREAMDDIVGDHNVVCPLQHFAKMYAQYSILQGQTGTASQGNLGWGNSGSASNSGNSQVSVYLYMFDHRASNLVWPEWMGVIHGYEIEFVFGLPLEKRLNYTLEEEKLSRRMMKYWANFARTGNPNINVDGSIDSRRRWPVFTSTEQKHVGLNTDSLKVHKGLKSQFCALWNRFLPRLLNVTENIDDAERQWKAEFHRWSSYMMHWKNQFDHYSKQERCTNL

SMILES | IC50 (Cholinesterase [4]) | Papp (in vitro) | IC50 (Acetylcholinesterase [6]) | inhibition (INH) (Beta-secretase 1 [8]) | IC50 (Beta-secretase 1 [5]) | Ratio IC50 (Cholinesterase [9]) | also measured
COC1=CC(=O)C2(CCC(C)(CC(=O)NCCCCCCCCNc3c4c(nc5cc(Cl)ccc35)CCCC4)O2)CC1=O (configuration not stated) | – | – | – | – | – | – | Drug metabolism [1]: Metabolite_Detected; Drug metabolism [2]: Metabolite_Detected; Drug metabolism [3]: Metabolite_Detected
COc1cc2c(cc1OCc1ccccc1)CCC(C)(CC(=O)NCCCCCCNc1c3c(nc4cc(Cl)ccc14)CCCC3)O2 (configuration not stated) | 201 nM | 10.7 ×10⁻⁶ cm/s | 11 nM | – | – | – | IC50 (Beta-secretase 1 [5]; read-out: IC50): 18000 nM
COc1cc(O)c(CCC(C)(O)CC(=O)NCCCCCCCCNc2c3c(nc4cc(Cl)ccc24)CCCC3)cc1O (configuration not stated) | – | – | – | – | – | – | Drug metabolism [1]: Metabolite_Detected; Drug metabolism [2]: Metabolite_Detected; Drug metabolism [3]: Metabolite_Detected
COc1cc2c(cc1O)CCC(C)(CC(=O)NCCCCCCCCNc1c3c(nc4ccccc14)CCCC3)O2 (configuration not stated) | 5.33 nM | 7.3 ×10⁻⁶ cm/s | 69.8 nM | Not Active | Not Active | 7 | Ratio IC50 (Acetylcholinesterase [7]): < 5
COc1cc2c(cc1O)CCC(C)(CC(=O)NCCCCCCCCCNc1c3c(nc4ccccc14)CCCC3)O2 (configuration not stated) | 5.36 nM | 8.9 ×10⁻⁶ cm/s | 57.8 nM | – | – | 7 | Ratio IC50 (Acetylcholinesterase [7]): < 5; inhibition at 5 µM (Beta-secretase 1 [8]): 6.75%
COc1cc2c(cc1O)CCC(C)(CC(=O)O)O2 (configuration not stated) | – | 0.4 ×10⁻⁶ cm/s | – | – | – | – | IC50 (Cholinesterase [10]): Not Active; IC50 (Acetylcholinesterase [11]): Not Active
COc1cc2c(cc1O)CCC(C)(CCC(=O)NCCCCCCCNc1c3c(nc4cc(Cl)ccc14)CCCC3)O2 (configuration not stated) | 187 nM | 8.3 ×10⁻⁶ cm/s | 7.94 nM | – | – | – | inhibition at 5 µM (Beta-secretase 1 [8]): 14%
COc1cc2c(cc1O)CCC(C)(CCNCCCCCCCNc1c3c(nc4cc(Cl)ccc14)CCCC3)O2 (configuration not stated) | 17.4 nM | 10.3 ×10⁻⁶ cm/s | 0.44 nM | Not Active | Not Active | 2 | –
COc1cc2c(cc1O)CCC(C)(CCNCCCCCCCCNc1c3c(nc4cc(Cl)ccc14)CCCC3)O2 (configuration not stated) | 13.4 nM | 12.5 ×10⁻⁶ cm/s | 0.12 nM | – | – | 2 | Ki (Acetylcholinesterase [12]): 0.132 nM; Kd (Acetylcholinesterase [13]): 2030 nM; inhibition at 5 µM (Beta-secretase 1 [8]): 24.8%; Ki (Acetylcholinesterase [14]): 0.258 nM
COc1cc2c(cc1O)CCC(C)(CCC(=O)NCCCCCCCCNc1c3c(nc4cc(Cl)ccc14)CCCC3)O2 (configuration not stated) | 148 nM | 8.7 ×10⁻⁶ cm/s | 6.23 nM | Not Active | Not Active | – | –
COc1cc2c(cc1O)CCC(C)(CC(=O)NCCCCCCNc1c3c(nc4ccccc14)CCCC3)O2 (configuration not stated) | 4.99 nM | 4.3 ×10⁻⁶ cm/s | 275 nM | Not Active | Not Active | 7 | Ratio IC50 (Acetylcholinesterase [7]): < 5
COC1=CC(=O)C(CCC(C)(O)CC(=O)NCCCCCCCCNc2c3c(nc4cc(Cl)ccc24)CCCC3)=CC1=O (configuration not stated) | – | – | – | – | – | – | Drug metabolism [1]: Metabolite_Detected; Drug metabolism [2]: Metabolite_Detected; Drug metabolism [3]: Metabolite_Detected
COc1cc2c(cc1O)CCC(C)(CCC(=O)NCCCCCCNc1c3c(nc4cc(Cl)ccc14)CCCC3)O2 (configuration not stated) | 102 nM | 7.8 ×10⁻⁶ cm/s | 3.8 nM | Not Active | Not Active | – | –
COc1cc2c(cc1O)CCC(C)(CCNCCCCCCCCCNc1c3c(nc4cc(Cl)ccc14)CCCC3)O2 (configuration not stated) | 18.3 nM | 10.1 ×10⁻⁶ cm/s | 0.27 nM | – | – | 2 | inhibition at 5 µM (Beta-secretase 1 [8]): 28.1%
Nc1c2c(nc3cc(Cl)ccc13)CCCC2 | – | 26.1 ×10⁻⁶ cm/s | – | – | – | – | Drug metabolism [1]: Metabolite_Detected; Drug metabolism [2]: Metabolite_Detected; Drug metabolism [3]: Metabolite_Detected
COc1cc2c(cc1O)CCC(C)(CC(=O)NCCCCCCCCCNc1c3c(nc4cc(Cl)ccc14)CCCC3)O2 (configuration not stated) | 168 nM | 8.2 ×10⁻⁶ cm/s | 2.05 nM | Not Active | Not Active | – | –
COc1cc2c(cc1O)CCC(C)(CC(=O)NCCOCCOCCNc1c3c(nc4cc(Cl)ccc14)CCCC3)O2 (configuration not stated) | 1840 nM | 7 ×10⁻⁶ cm/s | 47.9 nM | Not Active | Not Active | – | –
COc1cc2c(cc1O)CCC(C)(CCNCCOCCOCCNc1c3c(nc4cc(Cl)ccc14)CCCC3)O2 (configuration not stated) | 180 nM | 9.7 ×10⁻⁶ cm/s | 8.35 nM | – | – | – | inhibition at 5 µM (Beta-secretase 1 [8]): 19.9%
COc1cc2c(cc1O)CCC(C)(CC(=O)NCCCCCCCNc1c3c(nc4cc(Cl)ccc14)CCCC3)O2 (configuration not stated) | 79.1 nM | 9.7 ×10⁻⁶ cm/s | 5.43 nM | Not Active | Not Active | – | –
COc1cc2c(cc1O)CCC(C)(CC(=O)NCCCCCCCNc1c3c(nc4ccccc14)CCCC3)O2 (configuration not stated) | 4.28 nM | 6.6 ×10⁻⁶ cm/s | 111 nM | Not Active | Not Active | 7 | Ratio IC50 (Acetylcholinesterase [7]): < 5
COc1cc2c(cc1OCc1ccccc1)CCC(C)(CC(=O)NCCCCCCCNc1c3c(nc4cc(Cl)ccc14)CCCC3)O2 (configuration not stated) | 51 nM | 11.5 ×10⁻⁶ cm/s | 6.99 nM | – | – | – | IC50 (Beta-secretase 1 [5]; read-out: IC50): 12500 nM
COc1cc2c(cc1O)CCC(C)(CCN)O2 (configuration not stated) | 23200 nM | 1 ×10⁻⁶ cm/s | 101000 nM | – | – | – | inhibition (Cholinesterase [15]): inactive; inhibition (Acetylcholinesterase [16]): inactive
COc1cc2c(cc1OCc1ccccc1)CCC(C)(CC(=O)NCCCCCCCCCNc1c3c(nc4cc(Cl)ccc14)CCCC3)O2 (configuration not stated) | 30.6 nM | 10.4 ×10⁻⁶ cm/s | 7.89 nM | – | – | – | IC50 (Beta-secretase 1 [5]; read-out: IC50): 7190 nM
